Consider 22 molecules from US7273856B2, “Linear basic compounds having NK-2 antagonist activity and formulations thereof” (Menarini Ricerche S.P.A., priority 2001, dated 2007).

Each structure is given as a SMILES string. Where a name gives a salt, the structure may show the parent alone.

In this experiment the target is T1, human NK-2 receptor (Homo sapiens, UniProt P21452).
T1 construct: expressed in transfected cells; host or cells: CHO (Chinese hamster ovary) cells, membranes
T1 sequence (P21452 1-398): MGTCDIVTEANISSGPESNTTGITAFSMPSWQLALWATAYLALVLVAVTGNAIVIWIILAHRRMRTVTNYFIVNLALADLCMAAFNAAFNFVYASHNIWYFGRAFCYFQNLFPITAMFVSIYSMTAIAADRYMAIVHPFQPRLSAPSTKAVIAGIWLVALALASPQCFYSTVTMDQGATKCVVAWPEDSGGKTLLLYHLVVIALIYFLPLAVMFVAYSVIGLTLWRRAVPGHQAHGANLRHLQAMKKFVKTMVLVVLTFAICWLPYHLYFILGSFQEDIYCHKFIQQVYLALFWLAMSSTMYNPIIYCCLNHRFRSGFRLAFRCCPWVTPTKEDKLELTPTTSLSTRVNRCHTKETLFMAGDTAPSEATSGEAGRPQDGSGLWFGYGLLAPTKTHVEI
As to the kind of experiment: binding test, affinity for the human NK-2 receptor, competition with [125I]NKA on transfected CHO cell membranes. Conditions: CHO cell membranes transfected with NK-2 receptor of human ileum; [125I]NKA 100 pM; 30 min, 20° C. As for the experimental part:
The evaluation of the antagonist activity on NK-2 receptors has been assessed by binding and functional tests according to that already described in literature in relation to NK-2 antagonists.
The test substances have been tested within a concentration range from 0.01 nM to 10 nM. At the end of the incubation time (30 min, 20° C.) the samples have been filtered and radioactivity has been determined using a gamma-counter.
The molecule `O=C(NC1(C(=O)N[C@H](Cc2ccccc2)C(=O)NCCCN2CCC3(CC2)OCCO3)CCCC1)c1cc2ccccc2s1` [Example 55, Benzo[b]thiophene-2-carboxylic acid (1-{1(R)-[3-(1,4-dioxa-8-aza-spiro[4.5]dec-8-yl)-propylcarbamoyl]-2-phenyl-ethylcarbamoyl}-cyclopentyl)-amide TFA salt] gave a Ki of 1 nM.
For the molecule `CC[C@@](C)(NC(=O)C=Cc1ccc(C)cc1)C(=O)N[C@H](Cc1ccccc1)C(=O)N[C@H]1CC[C@@H](C(=O)N[C@H]2CCCC[C@@H]2N)C1.O=C(O)C(F)(F)F` [Example 15, N^γ{N^α[N^α(4-methylcinnamoyl)-(R)-α-methyl-α-ethylglycyl]-D-phenylalanyl}-(1R,3S)-3-amino cyclopentane-1-carboxylic-acid-N-((1S,2S)-2-aminocyclohexyl) amide trifluoroacetate salt], the negative logarithm of the Ki (pKi) is recorded as 10.0.
Same read-out and setting: in the case of `CC[C@@](C)(NC(=O)c1cc2ccccc2s1)C(=O)N[C@H](Cc1ccccc1)C(=O)N[C@H]1CC[C@@H](C(=O)N[C@H]2CCCC[C@@H]2N)C1.O=C(O)C(F)(F)F` [Example 14, N^γ{N^α[N^α(benzo[b]thiophen-2-ylcarbonyl)-(R)-α-methyl-α-ethylglycyl]-D-phenylalanyl}-(1R,3S)3-amino cyclopentane-1-carboxylic-acid-N-((1S,2S)-2-aminocyclohexyl) amide trifluoroacetate salt] it was 9.9.
`O=C(NC1(C(=O)N[C@H](Cc2ccccc2)C(=O)NCCCN2CCOCC2)CCCC1)c1cc2cc(Cl)ccc2o1` [Example 102, 5-Chloro-benzofuran-2-carboxylic acid {1-[1R-(3-morpholin-4-yl-propylcarbamoyl)-2-phenyl-ethylcarbamoyl]-cyclopentyl}-amide]: the Ki is 0.501 nM.
The same measure, in the same setting: under `Cc1ccc(C=CC(=O)NC2(C(=O)NC(Cc3ccccc3)C(=O)NC3CCC(C(=O)NC4CCCCC4N(C)C)C3)CCCC2)cc1` [Example 10, N^γ{N^α[N^α(4-methyl-cinnamoyl)-1-aminocyclopentan-1-carboxy]-D-phenylalanyl}-(1R,3S)-3-aminocyclopentane-1-carboxylic-acid-N-((1S,2S)-2-dimethylaminocyclohexyl)amide hydrochloride salt] stands 0.501 nM; under `NC1CCCCC1NC(=O)C1CCCC(NC(=O)C(Cc2ccccc2)NC(=O)C2(NC(=O)c3cc4ccccc4s3)CCCCC2)C1` (single isomer, unassigned) [Example 28], 0.0501 nM.
Same read-out and setting: in the case of `O=C(NC1(C(=O)N[C@H](Cc2ccccc2)C(=O)NCC2CCN(CC3CCOCC3)CC2)CCCC1)c1cc2cc(I)ccc2o1` [Example 127, 5-Iodo-benzofuran-2-carboxylic acid [1-(2-phenyl-1R-{[1-(tetrahydro-pyran-4-ylmethyl)-piperidin-4-ylmethyl]-carbamoyl}-ethylcarbamoyl)-cyclopentyl]-amide] it was 0.0794 nM; in that of `Cc1cccc2cc(C(=O)NC3(C(=O)N[C@H](Cc4ccccc4)C(=O)NCC4CCN(CC5CCOCC5)CC4)CCCC3)sc12` [Example 134, 7-Methyl-benzo[b]thiophene-2-carboxylic acid [1-(2-phenyl-1R-{[1-(tetrahydro-pyran-4-ylmethyl)-piperidin-4-ylmethyl]-carbamoyl}-ethylcarbamoyl)-cyclopentyl]-amide], 0.0631 nM; in that of `N#CCN1CCC(CCNC(=O)[C@@H](Cc2ccccc2)NC(=O)C2(NC(=O)c3cc4ccccc4s3)CCCC2)CC1` [Example 87, Benzo[b]thiophene-2-carboxylic acid (1-{1(R)-[2-(1-cyanomethyl-piperidin-4-yl)-ethylcarbamoyl]-2-phenyl-ethylcarbamoyl}-cyclopentyl)-amide TFA salt], 1.26 nM.
On the same count and under the same terms, under `COc1ccc2oc(C(=O)NC3(C(=O)N[C@H](Cc4ccccc4)C(=O)NCC4CCN(CC5CCOCC5)CC4)CCCC3)cc2c1` [Example 146, 5-Methoxy-benzofuran-2-carboxylic acid [1-(2-phenyl-1-{[1R-(tetrahydro-pyran-4-ylmethyl)-piperidin-4-ylmethyl]-carbamoyl}-ethylcarbamoyl)-cyclopentyl]-amide] stands 0.398 nM; under `CN1CCN(C(=O)[C@@H]2CC[C@H](NC(=O)[C@@H](Cc3ccccc3)NC(=O)C3(NC(=O)c4cc5ccccc5s4)CCCC3)C2)CC1` [Example 33, N^α[N^α(benzo[b]thiophen-2-ylcarbonyl)-1-aminocyclopentan-1-carboxy]-D-phenylalanine amide-N-[(1S,3R)-3-(4-(methyl)piperazin-1-yl)carbonyl)cyclopentane], 0.631 nM.
`CC(C)(C)c1ccc2oc(C(=O)NC3(C(=O)N[C@H](Cc4ccccc4)C(=O)NCC4CCN(CC5CCOCC5)CC4)CCCC3)cc2c1` [Example 128, 5-tert-Butyl-benzofuran-2-carboxylic acid [1-(2-phenyl-1R-{[1-(tetrahydro-pyran-4-ylmethyl)-piperidin-4-ylmethyl]-carbamoyl}-ethylcarbamoyl)-cyclopentyl]-amide] had a Ki of 0.126 nM.
For `O=C(C=Cc1ccc(Cl)c(Cl)c1)NC1(C(=O)N[C@H](Cc2ccccc2)C(=O)NCCCN2CCOCC2)CCCC1` [Example 44, 1-[3-(3,4-dichlorophenyl)-acryloylamino]-cyclopentanecarboxylic acid, [1-(3-morpholin-4-yl-propylcarbamoyl)-2-(R)-phenyl-ethyl]-amide], the affinity corresponds to a Ki of 0.794 nM.
Still for that read-out and setting: under `CN(C)[C@H]1CCCC[C@@H]1NC(=O)[C@@H]1CC[C@H](NC(=O)[C@@H](Cc2ccccc2)NC(=O)C2(NC(=O)c3ccc(-c4ccccc4)cc3)CCCC2)C1` [Example 12, N^γ{N^α[N^α(biphen-4-ylcarbonyl)-1-aminocyclopentan-1-carboxy]-D-phenylalanyl}-(1R,3S)-3-aminocyclopentane-1-carboxylic-acid-N-((1S,2S)-2-dimethylaminocyclohexyl)amide hydrochloride salt] stands 0.316 nM.
Still for that read-out and setting: in the case of `O=C(NC1(C(=O)N[C@H](Cc2ccccc2)C(=O)NCC2CCN(CC3CCOCC3)CC2)CCCC1)c1cc2cc(Cl)ccc2o1` [Example 122, 5-Chloro-benzofuran-2-carboxylic acid [1-(2-phenyl-1R-{[1-(tetrahydro-pyran-4 ylmethyl)-piperidin-4-ylmethyl]-carbamoyl}-ethylcarbamoyl)cyclopentyl]-amide] it was 0.1 nM.
On the same count and under the same terms, in the case of `Cc1ccc2cc(C(=O)NC3(C(=O)N[C@H](Cc4ccccc4)C(=O)NCC4CCN(CC5CCOCC5)CC4)CCCC3)oc2c1` [Example 125, 6-Methyl-benzofuran-2-carboxylic acid [1-(2-phenyl-1R-{[1-(tetrahydro-pyran-4-ylmethyl)-piperidin-4-ylmethyl]-carbamoyl}-ethylcarbamoyl)-cyclopentyl]-amide] it was 0.251 nM.
As for `O=C(NC1(C(=O)N[C@H](Cc2ccccc2)C(=O)NCCCN2CCOCC2)CCCCC1)c1cc2ccccc2s1` [Example 20, N^α[N^α(benzo[b]thiophen-2-yl-carbonyl)-1-aminocyclohexan-1-carboxy]-D-phenylalanine-N-[3(morpholin-4-yl)propyl]amide], the negative logarithm of the Ki (pKi) is 9.1.
Molecule `Cc1ccc(C[C@@H](NC(=O)C2(NC(=O)c3cc4ccccc4n3C)CCCC2)C(=O)N[C@H]2CC[C@@H](C(=O)N[C@H]3CCCC[C@@H]3N)C2)cc1` [Example 17, N^γ{N^α[N^α(N-(methyl)indol-2-ylcarboxy)-1-aminocyclopentan-1-carboxy]-R-3-(4-methyl)phenyl)alanyl}-(1R,3S)-3-aminocyclopentane-1-carboxylic-acid-N-((1S,2S)-2-aminocyclohexyl)amide hydrochloride salt] gave a Ki of 2.51 nM.
The molecule `O=C(N[C@]1(C(=O)N[C@H](Cc2ccccc2)C(=O)NCCCN2CCOCC2)CCc2ccccc21)c1cc2ccccc2s1` [Example 23, N^α[N^α(benzo[b]thiophen-2-ylcarbonyl)-1-(R)-amino-indan-1-carboxy]-D-phenylalanine-N-[3(morpholin-4-yl)propyl]amide] had an inhibitory constant (Ki) of 2 nM.
The same measure, in the same setting: under `O=C(NC1(C(=O)N[C@H](Cc2ccccc2)C(=O)NC2CCN(CCC3CCOCC3)CC2)CCCC1)c1cc2ccccc2s1` [Example 68, Benzo[b]thiophene-2-carboxylic acid [1-(2-phenyl-1(R)-{1-[2-(tetrahydro-pyran-4-yl)-ethyl]-piperidin-4-ylcarbamoyl}-ethylcarbamoyl)-cyclopentyl]-amide TFA salt] stands 1.26 nM; under `O=C(NC1(C(=O)N[C@H](Cc2ccccc2)C(=O)NCC2CCN(C3CCSCC3)CC2)CCCC1)c1cc2ccccc2s1` [Example 81, Benzo[b]thiophene-2-carboxylic acid [1-(2-phenyl-1(R)-{[1-(tetrahydro-thiopyran-4-yl)-piperidin-4-ylmethyl]-carbamoyl}-ethylcarbamoyl)-cyclopentyl]-amide TFA salt], 0.0794 nM.
On the same count and under the same terms, under `CC(C)N1CCC(CNC(=O)[C@@H](Cc2ccccc2)NC(=O)C2(NC(=O)c3cc4ccccc4s3)CCCC2)CC1` [Example 70, Benzo[b]thiophene-2-carboxylic acid (1-{1-(R)-[(1-isopropyl-piperidin-4-ylmethyl)-carbamoyl]-2-phenyl-ethylcarbamoyl}-cyclopentyl)-amide] stands 1.58 nM.
